Results: US20260027101A1, “BACTERIAL TOPOISOMERASE INHIBITORS” (priority 2022, published 2026)
≈ marks a conversion by molar mass, not a printed value. Read-outs that look alike come from different tables or passages of the source.

What was measured:
Type in all cases: cell-based
[1] = test system: Escherichia coli ATCC 25922; test: MIC, Escherichia coli ATCC 25922
Protocol: (§1) Minimum inhibitory concentrations (MICs) were determined in triplicate according to Clinical and Laboratory Standards Institute (CLSI) guidelines using one or more strains of S. aureus or selected Gram-negative bacteria. […] Compounds were also assayed using a USA300 (Hidron, A. I., et al., Emergence of Community-Acquired Meticillin-Resistant Staphylococcus aureus Strain USA300 as a Cause of Necrotising Community-Onset Pneumonia. Lancet Infect. Dis. 2009, 9. 384-392) isolate of MRSA as well as a S. aureus strain isolated from a cystic fibrosis patient.

[2] = test system: Staphylococcus aureus ATCC 29213; test: MIC, S. aureus ATCC 29213 (CLSI)
Protocol: as §1

[3] = test system: Staphylococcus aureus USA300 (MRSA isolate); test: MIC, S. aureus USA300 MRSA isolate (CLSI); details: read-out: MIC against Staphylococcus aureus USA300
Protocol: as §1

[4] = test system: Pseudomonas aeruginosa ATCC 27853; test: MIC, Pseudomonas aeruginosa ATCC 27853
Protocol: as §1

[5] = test system: Salmonella enterica ATCC 14028; test: MIC, Salmonella enterica ATCC 14028
Protocol: as §1

[6] = test system: Acinetobacter baumanii ATCC 19606; test: MIC, Acinetobacter baumanii ATCC 19606; details: Acinetobacter baumannii
Protocol: as §1

[7] = test system: Staphylococcus aureus CF isolate; test: MIC, S. aureus cystic fibrosis isolate (CLSI); details: read-out: MIC against Staphylococcus aureus CF isolate
Protocol: as §1

[8] = test system: Salmonella enterica 14028 ΔtolC (efflux-deficient strain); test: microbe, parasite or virus in culture; details: for MIC: Salmonella enterica, read-out: MIC against Salmonella enterica 14028 ΔtolC
Protocol: as §1

[9] = test system: Staphylococcus aureus D83N (29213-derived strain, GyrA substitution); test: microbe, parasite or virus in culture; details: read-out: MIC against Staphylococcus aureus D83N
Protocol: as §1

[10] = test system: Staphylococcus aureus M121K (29213-derived strain, GyrA substitution); test: microbe, parasite or virus in culture; details: read-out: MIC against Staphylococcus aureus M121K
Protocol: as §1

[11] = ATCC25922, read-out: MIC against Escherichia coli ATCC 25922
[12] = ATCC29213, read-out: MIC against Staphylococcus aureus ATCC 29213
[13] = ATCC27853, read-out: MIC against Pseudomonas aeruginosa ATCC 27853
[14] = ATCC14028, read-out: MIC against Salmonella enterica ATCC 14028
[15] = ATCC19606, read-out: MIC against Acinetobacter baumanii ATCC 19606
[16] = ATCC25922, strain ATCC 25922, read-out: MIC against Escherichia coli ATCC 25922
[17] = ATCC29213, strain ATCC 29213, triplicate, CLSI, read-out: MIC against Staphylococcus aureus ATCC 29213
[18] = USA300 MRSA isolate, ciprofloxacin-resistant
[19] = ATCC27853, strain ATCC 27853, read-out: MIC against Pseudomonas aeruginosa ATCC 27853
[20] = ATCC14028, strain ATCC 14028, read-out: MIC against Salmonella enterica ATCC 14028
[21] = ATCC19606, strain ATCC 19606, read-out: MIC against Acinetobacter baumanii ATCC 19606

| SMILES | MIC [1, 11] [µg/mL] | MIC [2, 12] [µg/mL] | MIC [3] [µg/mL] | MIC [4, 13] [µg/mL] | MIC [5, 14] [µg/mL] | MIC [6, 15] [µg/mL] | MIC [7] [µg/mL] | MIC against Salmonella enterica 14028 ΔtolC ([8]; efflux-deficient strain) [µg/mL] | MIC [9] [µg/mL] | MIC [10] [µg/mL] | MIC [1, 16] [µg/mL] | MIC [2, 17] [µg/mL] | MIC [3, 18] [µg/mL] | MIC [4, 19] [µg/mL] | MIC [5, 20] [µg/mL] | MIC [6, 21] [µg/mL] | MIC ([7]; isolate from individual with cystic fibrosis) [µg/mL] | MIC [8] [µg/mL] |
| --- | --- | --- | --- | --- | --- | --- | --- | --- | --- | --- | --- | --- | --- | --- | --- | --- | --- | --- |
| COc1ccc2ncc(F)c(CCN3CCC(/C=C/c4ccc5c(c4)OCCO5)CC3)c2n1 [Example 2, (E)-8-(2-(4-(2-(2,3-dihydrobenzo[b][1,4]dioxin-6-yl)vinyl)piperidin-1-yl)ethyl)-7-fluoro-2-methoxy-1,5-naphthyridine] | 8 (≈ 17.8 µM) | 0.25 (≈ 0.556 µM) | 0.5 (≈ 1.11 µM) | 64 (≈ 142 µM) | 64 (≈ 142 µM) | 8 (≈ 17.8 µM) | 0.5 (≈ 1.11 µM) | 0.125 (≈ 0.278 µM) | 2 (≈ 4.45 µM) | 2 (≈ 4.45 µM) | – | – | – | – | – | – | – | – |
| COc1ccc2ncc(F)c(CCN3CCC([C@@H]4OC(=O)O[C@H]4c4ccc(C)cc4)CC3)c2n1 [Example 31, (4S,5S)-4-(1-(2-(3-fluoro-6-methoxy-1,5-naphthyridin-4-yl)ethyl)piperidin-4-yl)-5-(p-tolyl)-1,3-dioxolan-2-one] | – | – | – | – | – | – | – | – | > 32 | > 32 | > 64 | 2 (≈ 4.3 µM) | 2 (≈ 4.3 µM) | > 64 | > 64 | 64 (≈ 137 µM) | 4 (≈ 8.59 µM) | 8 (≈ 17.2 µM) |
| COc1ccc2ncc(F)c(CCN3CCC(/C=C\c4ccc5c(c4)OCCO5)CC3)c2n1 [Example 11, (Z)-8-(2-(4-(2-(2,3-dihydrobenzo[b][1,4]dioxin-6-yl)vinyl)piperidin-1-yl)ethyl)-7-fluoro-2-methoxy-1,5-naphthyridine] | > 64 | 8 (≈ 17.8 µM) | 8 (≈ 17.8 µM) | 64 (≈ 142 µM) | > 64 | 64 (≈ 142 µM) | 9 (≈ 20 µM) | – | > 16 | > 16 | – | – | – | – | – | – | – | 4 (≈ 8.9 µM) |
| O=c1ccc2ncc(=O)n3c2n1C[C@H]3CN1CCC(NCc2cc3c(cn2)OCCC3)CC1 [gepotidacin, reference compound] | – | – | – | – | – | – | 0.125 to 0.5 (≈ 0.279 to 1.11 µM) | – | 4 to 32 (≈ 8.92 to 71.3 µM) | 8 to 32 (≈ 17.8 to 71.3 µM) | 0.5 to 2 (≈ 1.11 to 4.46 µM) | 0.25 to 1 (≈ 0.557 to 2.23 µM) | 0.125 to 1 (≈ 0.279 to 2.23 µM) | 2 to 16 (≈ 4.46 to 35.7 µM) | 2 to 8 (≈ 4.46 to 17.8 µM) | 32 to 64 (≈ 71.3 to 143 µM) | – | 0.125 to 0.5 (≈ 0.279 to 1.11 µM) |
